The test system of series [1] is NCI-H929 multiple myeloma cell line. Nature of the series: Cell viability MTS assay, NCI-H929. Type of series: cell-based. The note with it: Homo sapiens, 48 hours, read-out: EC50, cell killing in NCI-H929. As to the method:
(§1) The lymphoid derived cell lines DHL-6 and DHL-10 were obtained from Anthony Letai of the Dana Father Cancer Research Institute, Boston, Mass. The […] derived cell line NCP-H929 was obtained irons, the NIH/NCI cell repository. AML-3 cells were obtained from Dr. Michael Andreef (MD Anderson Cancer Center, Houston, Tex.). Cells were grown in RPMI 1640 medium (GIBCO-BRL) supplemented with Pen-strep-glutamine (Gibco 10378) and 5% fetal bovine serum.
(§2) Cells were expanded in tissue culture in appropriate media and then subcultured into 96-well plates at a seeding density of 20,000-40,000 cells per well, and cells were treated with one or more compounds that were titrated info appropriate medium with FCS. Cell lines were treated with compound A at concentrations ranging from 25 μM to 25 nM. The BH3-mimetic obatoclax (Nguyen M et al. (2007), Proc. Natl. Acad. Sci. USA 104:19512-19517) was also tested against the SUDHL-6, SUDHL-10, and NCI-H929 cell lines. Cells were treated for 48 hours and scored for viability using the MTS assay (Promega). Growth inhibition was indicated as a percentage of control cell growth. Growth was determined by measuring the A570 (control cells)—A570 (treated cells)/A570 (control cells). EC50 values were calculated using Graphpad Prizm software.
On the technique in general: Tetrazolium assays rely on reduction of a dye to a coloured formazan, in cell work by metabolically active cells.

In series [2] the test system is SUDHL-6 lymphoid cell line. The experiment in a line: Cell viability MTS assay, SUDHL-6. Type of series: cell-based. The note with it: Homo sapiens, SU-DHL-6, 48 hours, read-out: EC50, cell killing in SUDHL-6. The method, then: as §1, §2
The test system of the next series is SUDHL-10 cell line. Nature of the series: Cell viability MTS assay, SUDHL-10 (Bax/Bak deficient). Type of series: cell-based, human. The method, then:
as §1, §2

The subject of series [3] is mitochondria in semi-permeabilized SUDHL-6 cells. Nature of the series: In situ mitochondrial assay (cytochrome c release), SUDHL-6. Type of series: cell-based. The following applies: SUDHL-6 (DHL-6), Bax/Bak functional, 10 uM. From the text:
(§3) The on-target activity of compound II-19 was validated. Changes in mitochondrial integrity were observed utilizing anti-cytochrome c conjugated to Alcxa488 (BD). When the mitochondria are intact, they retain cytochrome c and have bright, punctate staining with the antibody whereas cells with compromised mitochondrial integrity will lose cytochrome c and will not stain with the antibody. This can be observed by microscopy as well as measured by a shift in fluorescence on the FL1 channel of a flow cytometer.
(§4) The selective response of mitochondria in semi-permeabilized cell lines to the compounds was observed. The assay was adapted from (Campos et al. (2006) Cytometry Part A. 69(A):515-523).
(§5) Suspension cell lines SUDHL10 and SUDHL6 were grown in RPMI, washed once in 1xPBS and re-suspended at a concentration of 2e6/ml in assay buffer with 0.0025% Digitonin. Assay buffer; 300 mM Trehalose, 10 mM HEPES-KOH pH 7.7, 80 mM KCl, 1 mM EGTA, 1 mM EDTA, 0.1% BSA, 5 mM Succinate. Cells are incubated with test and control compounds at 10^6 cells/treatment for 1 hour at room temperature. […] Cytochrome c loss was measured by microscopy. At least 100 cells per treatment were counted and scored as positive for cytochrome c loss if they lacked staining. In both methods DMSO was calculated as 0% cytochrome c loss and the Bim response for DHL6 was used to determine 100% cytochrome c loss.

The subject of series [4] is mitochondria in semi-permeabilized SUDHL-10 cells. Nature of the series: In situ mitochondrial assay (cytochrome c release), SUDHL-10. Type of series: cell-based. The note with it: SUDHL-10 (DHL-10), Bax/Bak deficient, 10 uM.
Source text: as §3, §4, §5

A short description of series [5]: Pharmacokinetics of compound II-19 i.p. in male ICR mice. The note with it: 10 mg/kg. Type of series: in vivo, mouse. As to the method:
FIG. 11 is a graph of the pharmacokinetics of compound II-19 clearance in mouse plasma. Pharmacokinetic profile of Compound II-19 in. male ICR mice is shown. Compound II-19 was dissolved in 5% DMSO, 15% hydroxypropyl-beta-cyclodexmain, and 50 mM Tris in water to yield a nominal concentration of 5 mg/mL. This solution was administered intraperintoncally to […] male ICR mice at a dose of 10 mg/kg. Three mice in each group were used for blood, collection, at each of 8 time points: 5 minutes, 0.25 hrs, 0.5 hrs, 1 hr, 2 hrs, 4 hrs, 8 hrs, and 24 hrs postdose. Plasma samples at these time points were analyzed for the quantity of compound II-19 by standard liquid chromatography/mass spectroscopy methods.
Pharmacokinetic studies were conducted on compound II-19 to assess plasma clearance and distribution in male ICR mice. Compounds were administered i.p. (as in the xenograft study, Example 8) at 10 mg/kg. Blood samples were collected at various time points (pre-injection, 5 min, 15 min, 30 min, 1 h, 2 h, 4 h, 8 h and 24 h), and centrifuged to remove red blood cells. […] Plasma levels of drug were quantified by LC-MS (C18 column elided with linear gradient from 0% acetonitrile, 1% formic acid to 100% acetonitrile, 1% formic acid) against a set of standards prepared by diluting a known quantity of II-19 into mouse plasma.

“Also recorded” adds a separate entry of the source.

In general, EC50 refers to the concentration needed to bring the measured effect to its halfway point. As a reminder, the half-life is how long it takes for the measured level to halve. A low value points to fast loss. With `COC(=O)c1ccc(O)c2nc3c(C=O)c(O)c(-c4c(O)c(C=O)c5nc6c(O)ccc(C(=O)OC)c6nc5c4O)c(O)c3nc12` [II-19, dimethyl 4,4′-diformyl-1,1′,3,3′,6,6′-hexahydroxy-[2,2′-biphenazine]-9,9′-dicarboxylate], the 50% effective concentration (EC50) in series [1] was 8 µM; in series [2] it was 3 µM; with SUDHL-10 cell line (Homo sapiens, SU-DHL10, 48 hours, MTS assay, Bax/Bak deficient cell line, read-out: EC50, cell killing in SUDHL-10), above 20 µM. For the same compound, the “activity against the Bax/Bak deficient cell line SUDHL-10 (in words)” value with SUDHL-10 cell line (cell killing, FIG. 4d) was “absence of activity”. Besides, the “cytochrome c release from mitochondria” value in series [3] is reported as “causes release of cytochrome c; also recorded: direct activity”; in series [4], “but not BAX/BAK-deficient SUDHL-10 cell line; also recorded: lack of activity”. Besides, the “time for which circulating drug levels can be sustained” value in series [5] is given as above 24 h. The half-life in series [5] (mouse, plasma, ip) was above 20 h.

The record behind these values is patent publication US9351971B2, “Substituted 2,2′-biphenazines for treating diseases” (Eutropics Pharmaceuticals, Inc., priority 2010, dated 2016).
